Activity calls are given as the source filed them. The calls are words filed in the database; no cut-off is given here.
How the values were obtained:
K562 [1] = conditions: Homo sapiens
K562 [2] = conditions: Homo sapiens; remark: listed apart in the source
K562 [3] = conditions: Homo sapiens; remark: listed apart in the source
HepG2 [4] = assay: Growth inhibition of human HepG2 cells after 72 hrs by MTT assay; type: functional, cell-based; conditions: HepG2, 72 h
HepG2 [5] = assay: Growth inhibition of doxorubicin resistant human HepG2 cells after 72 hrs by MTT assay; type: functional, cell-based; conditions: HepG2, 72 h
K562 [6] = assay: Growth inhibition of human K562 cells after 72 hrs by SRB assay; type: functional, cell-based; conditions: K562, 72 h
K562 [7] = assay: Growth inhibition of doxorubicin-resistant human K562 cells after 72 hrs by SRB assay; type: functional, cell-based; conditions: K562, 72 h
K562 [8] = assay: Inhibition of human Pgp-ATPase activity in doxorubicin-resistant K562 cells; type: cell-based
HepG2 [9] = assay: Inhibition of Pgp mediated Hoechst 33342 efflux in doxorubicin-resistant human HepG2 cells assessed as increase in cellular fluorescence of substrate at 5 uM; type: cell-based; set-up: scale not given: the % may be the effect or the level left
K562 [10] = assay: Inhibition of Pgp mediated Hoechst 33342 efflux in doxorubicin-resistant human K562 cells assessed as increase in cellular fluorescence of substrate at 5 uM; type: cell-based; set-up: scale not given: the % may be the effect or the level left
K562 [11] = assay: Effect on Pgp expression level in doxorubicin resistant human K562 cells at 20 uM after 72 hrs by Western blot; type: functional, cell-based
KB-V1 [12] = assay: Effect on Pgp expression level in human KB V1 cells at 4 uM after 72 hrs by Western blot; type: functional, cell-based
KB-V1 [13] = assay: Effect on Pgp expression level in human KB V1 cells at 20 uM after 72 hrs by Western blot; type: functional, cell-based
HepG2 [14] = assay: Increase in monoclonal antibody UIC2 binding to human Pgp in doxorubicin-resistant human HepG2 cells; type: cell-based
[15] = Growth inhibition of human KB3-1 cells after 72 hrs by MTT assay; type: functional, cell-based; conditions: KB 3-1, 72 h
[16] = Growth inhibition of human KB V1 cells after 72 hrs by MTT assay; type: functional, cell-based; conditions: KB-V1, 72 h
HepG2 [17] = assay: Effect on Pgp expression level in doxorubicin resistant human HepG2 cells at 4 uM after 72 hrs by Western blot; type: functional, cell-based
HepG2 [18] = assay: Effect on Pgp expression level in doxorubicin resistant human HepG2 cells at 8 uM after 72 hrs by Western blot; type: functional, cell-based
HepG2 [19] = assay: Effect on Pgp expression level in doxorubicin resistant human HepG2 cells at 20 uM after 72 hrs by Western blot; type: functional, cell-based
K562 [20] = assay: Effect on Pgp expression level in doxorubicin resistant human K562 cells at 4 uM after 72 hrs by Western blot; type: functional, cell-based
K562 [21] = assay: Effect on Pgp expression level in doxorubicin resistant human K562 cells at 8 uM after 72 hrs by Western blot; type: functional, cell-based
HepG2 [22] = assay: Inhibition of Pgp mediated Rh123 efflux in doxorubicin-resistant human HepG2 cells assessed as increase in cellular fluorescence of substrate at 10 uM; type: cell-based; set-up: scale not given: the % may be the effect or the level left
K562 [23] = assay: Inhibition of Pgp mediated Rh123 efflux in doxorubicin-resistant human K562 cells assessed as increase in cellular fluorescence of substrate at 10 uM; type: cell-based; set-up: scale not given: the % may be the effect or the level left
HepG2 [24] = assay: Inhibition of Pgp mediated Hoechst 33342 efflux in doxorubicin-resistant human HepG2 cells assessed as increase in cellular fluorescence of substrate at 10 uM; type: cell-based; set-up: scale not given: the % may be the effect or the level left
K562 [25] = assay: Inhibition of Pgp mediated Hoechst 33342 efflux in doxorubicin-resistant human K562 cells assessed as increase in cellular fluorescence of substrate at 10 uM; type: cell-based; set-up: scale not given: the % may be the effect or the level left

What does the source list for `CC(=O)[C@H]1CC[C@H]2[C@@H]3CCC4=CC(=O)CC[C@]4(C)[C@H]3CC[C@]12C`?
Km (K562 [1]): 6.57 µM; Km (K562 [2]): 9.97 µM

For `COc1ccc(CCN(C)CCC[C@](C#N)(c2ccc(OC)c(OC)c2)C(C)C)cc1OC`, which Km (K562 [3]) is on record?
The Km was 0.89 µM.

What about the Km (K562 [2]) of the same compound?
Its Km is 0.7 µM.

With `COc1ccc(/C=C/C(=O)OC2c3c(ccc4ccc(=O)oc34)OC(C)(C)C2OC(=O)/C=C/c2ccc(OC)cc2)cc1` (racemic) as the compound, how does the IC50 (HepG2 [4]) read?
The IC50 was 55200 nM.

What about the IC50 (HepG2 [5]) of the same compound?
The IC50 was 72.6 µM.

What about the IC50 (K562 [6]) of the same compound?
The IC50 was 67.6 µM.

What about the IC50 (K562 [7]) of the same compound?
The IC50 was 81 µM.

For `COc1ccc(/C=C/C(=O)OC2c3c(ccc4ccc(=O)oc34)OC(C)(C)C2OC(=O)/C=C/c2ccc(OC)c(OC)c2)cc1OC` (racemic), which Activity (K562 [8]) is on record?
Its Activity is “Active”.

What about the Activity (HepG2 [9]) of the same compound?
The Activity was 200%.

And the Activity (K562 [10])?
Its Activity is 200%.

What about the Activity (K562 [11]) of the same compound?
The Activity was “inactive”.

What about the Activity (KB-V1 [12]) of the same compound?
Its Activity is “inactive”.

What about the Activity (KB-V1 [13]) of the same compound?
Its Activity is “inactive”.

What about the Activity (HepG2 [14]) of the same compound?
The Activity was “Active”.

And the IC50 [15]?
Its IC50 is 61.7 µM.

And the IC50 [16]?
Its IC50 is 32.3 µM.

What about the IC50 (HepG2 [4]) of the same compound?
Its IC50 is 54700 nM.

And the IC50 (HepG2 [5])?
Its IC50 is 76.3 µM.

And the IC50 (K562 [6])?
The IC50 was 54.4 µM.

What about the IC50 (K562 [7]) of the same compound?
Its IC50 is 70 µM.

And the Activity (HepG2 [17])?
Its Activity is “inactive”.

And the Activity (HepG2 [18])?
Its Activity is “inactive”.

And the Activity (HepG2 [19])?
The Activity was “inactive”.

What about the Activity (K562 [20]) of the same compound?
The Activity was “inactive”.

What about the Activity (K562 [21]) of the same compound?
The Activity was “inactive”.

With `CC1(C)Oc2ccc3ccc(=O)oc3c2C(OC(=O)/C=C/c2ccccc2)C1OC(=O)/C=C/c1ccccc1` (racemic) as the compound, how does the Activity (K562 [8]) read?
Its Activity is “Active”.

What about the Activity (HepG2 [22]) of the same compound?
Its Activity is 50%.

And the Activity (K562 [23])?
Its Activity is 20%.

And the Activity (HepG2 [24])?
Its Activity is 100%.

What about the Activity (K562 [25]) of the same compound?
The Activity was 100%.

What about the Activity (HepG2 [14]) of the same compound?
Its Activity is “inactive”.

Which results are given for `COc1ccc(CC(N)C(=O)N[C@H]2[C@@H](O)[C@H](n3cnc4c(N(C)C)ncnc43)O[C@@H]2CO)cc1` (single isomer, unassigned) [PUROMYCIN]?
IC50 [15]: 0.21 µM; IC50 [16]: 79.3 µM; IC50 (HepG2 [4]): 230 nM; IC50 (HepG2 [5]): 83.9 µM; IC50 (K562 [6]): 0.22 µM; IC50 (K562 [7]): 26.8 µM

For `COc1cccc2c1C(=O)c1c(O)c3c(c(O)c1C2=O)C[C@@](O)(C(=O)CO)C[C@@H]3O[C@H]1C[C@H](N)[C@H](O)[C@H](C)O1` [DOXORUBICIN], which IC50 [15] is on record?
The IC50 was 0.18 µM.

And the IC50 [16]?
The IC50 was 32 µM.

With `CC(=O)O[C@H]1C(=O)[C@@]2(C)[C@H]([C@H](OC(=O)c3ccccc3)[C@]3(O)C[C@H](OC(=O)[C@H](O)[C@@H](NC(=O)c4ccccc4)c4ccccc4)C(C)=C1C3(C)C)[C@]1(OC(C)=O)CO[C@@H]1C[C@@H]2O` [PACLITAXEL] as the compound, how does the IC50 [15] read?
Its IC50 is 0.002 µM.

And the IC50 [16]?
The IC50 was 8 µM.

What about the IC50 (HepG2 [4]) of the same compound?
The IC50 was 7 nM.

What about the IC50 (HepG2 [5]) of the same compound?
The IC50 was 4.15 µM.

And the IC50 (K562 [7])?
Its IC50 is 4.14 µM.

Which IC50 [15] does the source give for `CC[C@]1(O)C[C@@H]2CN(CCc3c([nH]c4ccccc34)[C@@](C(=O)OC)(c3cc4c(cc3OC)N(C)[C@H]3[C@@](O)(C(=O)OC)[C@H](OC(C)=O)[C@]5(CC)C=CCN6CC[C@]43[C@@H]65)C2)C1` [VINBLASTINE] here?
The IC50 was 0.00011 µM.

And the IC50 [16]?
Its IC50 is 1.04 µM.

What about the IC50 (HepG2 [4]) of the same compound?
Its IC50 is 0.07 nM.

And the IC50 (HepG2 [5])?
The IC50 was 0.44 µM.

What about the IC50 (K562 [6]) of the same compound?
Its IC50 is 0.00088 µM.

And the IC50 (K562 [7])?
Its IC50 is 0.17 µM.

From ChEMBL document CHEMBL1143069, “Methoxylation of 3',4'-aromatic side chains improves P-glycoprotein inhibitory and multidrug resistance reversal activities of 7,8-pyranocoumarin against cancer cells” (Bioorg Med Chem, 2008)
